Data on 34 compounds can be found in ChEMBL document CHEMBL5331088, “Design and synthesis of novel halogen rich salicylanilides as potential antileishmanial agents” (Eur J Med Chem, 2023).

Data set [1] deals with Leishmania donovani. Description: Antileishmanial activity against Leishmania donovani amastigotes infected in J774.A1 macrophage assessed as inhibition of parasite growth by luciferase assay. Format: functional, organism-based.
A short description of data set [2]: Cytotoxicity against mouse J774A.1 cells assessed as reduction in cell viability by MTT assay. The data set is classed as toxicity, cell-based, J774.A1.
A short description of data set [3]: Cytotoxicity against African green monkey Vero cells assessed as reduction in cell viability by MTT assay. The data set is classed as toxicity, cell-based. To be noted: chlorocebus sabaeus.
Data set [4] is described as follows: Selectivity index, ratio of CC50 for cytotoxicity against African green monkey Vero cells to IC50 for antileishmanial activity against Leishmania donovani amastigotes infected in J774.A1 macrophage. Format: toxicity, cell-based. To be noted: read-out: Ratio CC50/IC50.
Data set [5] is described as follows: Selectivity index, ratio of CC50 for cytotoxicity against mouse J774.A1 cells to IC50 for antileishmanial activity against Leishmania donovani amastigotes infected in J774.A1 macrophage. The data set is classed as toxicity, cell-based. The following applies: read-out: Ratio CC50/IC50.
Data set [6] relates to Leishmania donovani. Description: Antileishmanial activity against Leishmania donovani amastigotes infected in golden hamster model assessed as inhibition of splenic parasite burden at 50 mg/kg,ip for 5 consecutive days measured after 28 days of post treatment. The data set is classed as functional. The following applies: for inhibition in vivo at 50 mg/kg: 672 h, time 28 day.

Data set [7] relates to Leishmania donovani. Description: Antileishmanial activity against Leishmania donovani amastigotes infected in golden hamster model assessed as inhibition of splenic parasite burden at 50 mg/kg,ip for 5 consecutive days measured after 7 days of post treatment. Format: functional. To be noted: for inhibition in vivo at 50 mg/kg: 168 h, time 7 day.
The mark [8] stands for this setting: Leishmania donovani, J774.A1, read-out: IC50.

Turning to `O=C(Nc1ccc(F)c(F)c1)c1ccccc1O`, the half-inhibitory concentration (IC50) in the data set with Leishmania donovani [1] (setting [8]) was found to be 7.36 µM. Also, the figures for the CC50 in data set [2] and in data set [3] were 43.9 µM and 45.4 µM, respectively. Also, the selectivity ratio in data set [4] was found to be 6.17; in data set [5], 5.96.

Regarding `O=C(Nc1ccc(Br)c(C(F)(F)F)c1)c1cc(Cl)ccc1O`, in the data set with Leishmania donovani [1] (setting [8]), the IC50 worked out at 3.5 µM. For the same compound, the CC50 worked out at 46.6 µM in data set [2] and 2.54 µM in data set [3]. Also, the selectivity ratio in data set [4] came out at 0.72; in data set [5], 13.3.

On to `O=C(Nc1ccc(F)c(F)c1)c1cc(Cl)ccc1O`, for which the IC50 in the data set with Leishmania donovani [1] (setting [8]) came out at 3.54 µM. The CC50 was found to be 51.2 µM in data set [2] and 10.6 µM in data set [3]. Further, the figures for the selectivity ratio in data set [4] and in data set [5] were 2.99 and 14.5, respectively.

As for `O=C(Nc1ccccc1Cl)c1cc(Cl)ccc1O`, the IC50 in the data set on Leishmania donovani [1] (setting [8]) was 2.62 µM. The CC50 in data set [2] was 46.5 µM; in data set [3] it was 13.2 µM. Besides, the selectivity ratio in data set [4] is 5.02; in data set [5], 17.7.

Turning to `O=C(Nc1ccccc1F)c1ccccc1O`, in the data set on Leishmania donovani [1], the IC50 result is “Not Active”.

Turning to `O=C(Nc1ccc(F)cc1)c1ccccc1O`, in the data set on Leishmania donovani [1], the IC50 result is “Not Active”.

Consider `O=C(Nc1ccccc1)c1cccc(Cl)c1`, for which the IC50 result in the data set on Leishmania donovani [1] was “Not Active”.

Consider `O=C(Nc1ccc(F)c(Cl)c1)c1cc(Cl)ccc1O`, for which, in the data set with Leishmania donovani [1] (setting [8]), the concentration for half-maximal inhibition (IC50) came out at 2.89 µM. Also, the inhibition in vivo at 50 mg/kg with Leishmania donovani [6] stood at 16.5%; in the data set on Leishmania donovani [7], 25.1%. Also, the CC50 in data set [2] was found to be 52.4 µM; in data set [3] it was 14.5 µM. Further, the selectivity ratio was 5.02 in data set [4] and 18.1 in data set [5].

Take `O=C(Nc1ccc(Cl)c(C(F)(F)F)c1)c1ccccc1O`: the half-inhibitory concentration (IC50) result in the data set with Leishmania donovani [1] was “Not Active”.

As to `O=C(Nc1ccc(F)cc1)c1cc(Cl)ccc1O`, in the data set with Leishmania donovani [1], the 50% inhibitory concentration (IC50) result is “Not Active”.

Regarding `O=C(Nc1ccc(Cl)cc1)c1cc(Cl)ccc1O`, the IC50 with Leishmania donovani [1] (setting [8]) was determined as 2.09 µM. The results for the inhibition in vivo at 50 mg/kg in the data set on Leishmania donovani [6] and in the data set on Leishmania donovani [7] were 65.2% and 63.1%, respectively. Further, the figures for the CC50 in data set [2] and in data set [3] were 39 µM and 16.3 µM, respectively. In addition, the selectivity ratio came to 7.8 in data set [4] and 18.7 in data set [5].

As for `O=C(Nc1ccc([N+](=O)[O-])cc1Cl)c1cccc(Cl)c1`, the IC50 result with Leishmania donovani [1] is recorded as “Not Active”.

For `O=C(Nc1ccc(Br)cc1)c1cc(Cl)ccc1O`, the IC50 in the data set on Leishmania donovani [1] (setting [8]) amounted to 3.83 µM. The figures for the CC50 in data set [2] and in data set [3] were 50.8 µM and 10.1 µM, respectively. Moreover, the selectivity ratio was 2.64 in data set [4] and 13.3 in data set [5].

For the compound `O=C(Nc1ccccc1)c1ccccc1` [N-PHENYLBENZAMIDE], the IC50 entry in the data set with Leishmania donovani [1] is “Not Active”.

On to Sodium stibogluconate, for which the inhibition came out at 85.4% with Leishmania donovani [6] (time 28.0 day) and 81.4% in the data set with Leishmania donovani [7] (time 7.0 day).

Regarding `O=C(Nc1ccc([N+](=O)[O-])cc1F)c1cc(Cl)ccc1O`, the IC50 in the data set on Leishmania donovani [1] (setting [8]) came to 3.98 µM. Besides, the CC50 stood at 43.1 µM in data set [2] and 3.23 µM in data set [3]. The selectivity ratio in data set [4] was 0.81; in data set [5], 10.8.

Turning to `O=C(Nc1cccc(C(F)(F)F)c1)c1cc(Cl)ccc1O`, the IC50 in the data set with Leishmania donovani [1] (setting [8]) was 3.47 µM. The CC50 in data set [3] came out at 3.17 µM.

For the compound `CCCCCCCCCCCCCCCCOP(=O)([O-])OCC[N+](C)(C)C` [MILTEFOSINE], in the data set with Leishmania donovani [1] (setting [8]), the IC50 is 9.25 µM. The CC50 came out at 53.3 µM in data set [2] and 51.8 µM in data set [3]. Also, the selectivity ratio in data set [4] was 5.6; in data set [5], 5.76.

For `O=C(Nc1ccc([N+](=O)[O-])cc1Cl)c1ccccc1O`, the IC50 with Leishmania donovani [1] (setting [8]) is 3.27 µM. Moreover, the CC50 in data set [2] came to 42.1 µM; in data set [3] it was 7.29 µM. The selectivity ratio in data set [4] is 2.23; in data set [5] it was 12.9.

Regarding `O=C(Nc1cc(Cl)cc(Cl)c1)c1cc(Cl)ccc1O`, the IC50 in the data set with Leishmania donovani [1] (setting [8]) is 3.83 µM. Moreover, the values for the CC50 in data set [2] and in data set [3] were 38.8 µM and 6.49 µM, respectively. Further, the selectivity ratio is 1.69 in data set [4] and 10.1 in data set [5].

In the case of `O=C(Nc1ccc(F)cc1[N+](=O)[O-])c1ccccc1O`, the IC50 in the data set on Leishmania donovani [1] (setting [8]) was 7.47 µM. Moreover, the CC50 in data set [2] amounted to 41.1 µM; in data set [3], 65.2 µM. For the same compound, the selectivity ratio in data set [4] is 8.73; in data set [5] it was 5.5.

`O=C(Nc1cc(Cl)cc(Cl)c1)c1ccccc1O`: in the data set on Leishmania donovani [1] (setting [8]), the IC50 was found to be 7.97 µM. Further, the cytotoxic concentration (CC50) in data set [2] turned out to be 42.2 µM; in data set [3], 7.09 µM. The selectivity ratio in data set [4] was found to be 0.89; in data set [5], 5.3.

On to `O=C(Nc1cccc(Cl)c1)c1cc(Cl)ccc1O`, for which, in the data set on Leishmania donovani [1] (setting [8]), the IC50 is 4.62 µM. Besides, the results for the 50% cytotoxic concentration (CC50) in data set [2] and in data set [3] were 50.5 µM and 13.9 µM, respectively. Moreover, the selectivity ratio in data set [4] is 3; in data set [5], 10.9.

`O=C(Nc1ccc([N+](=O)[O-])cc1F)c1ccccc1O`: the IC50 in the data set on Leishmania donovani [1] (setting [8]) came out at 4.06 µM. In addition, the figures for the CC50 in data set [2] and in data set [3] were 42.8 µM and 11.7 µM, respectively. For the same compound, the results for the selectivity ratio in data set [4] and in data set [5] were 2.89 and 10.5, respectively.

With `O=C(Nc1cc(Cl)cc(Cl)c1O)c1c(O)c(Cl)cc(Cl)c1Cl` [OXYCLOZANIDE], the concentration for half-maximal inhibition (IC50) in the data set with Leishmania donovani [1] (setting [8]) stood at 7.71 µM. In addition, the values for the CC50 in data set [2] and in data set [3] were 42.4 µM and 156 µM, respectively. For the same compound, the selectivity ratio in data set [4] was determined as 31.2; in data set [5], 5.49.

With `O=C(Nc1ccccc1)c1ccccc1O` [SALICYLANILIDE], the half-inhibitory concentration (IC50) entry in the data set with Leishmania donovani [1] is “Not Active”.

Turning to `O=C(Nc1ccccc1)c1cc(Cl)ccc1O`, the IC50 entry with Leishmania donovani [1] is listed as “Not Active”.

`O=C(Nc1ccc([N+](=O)[O-])cc1Cl)c1ccccc1`: in the data set with Leishmania donovani [1], the IC50 entry is recorded as “Not Active”.

Take `O=C(Nc1ccc(F)c(Cl)c1)c1ccccc1O`: in the data set on Leishmania donovani [1], the IC50 entry was “Not Active”.

`O=C(Nc1ccc(F)cc1[N+](=O)[O-])c1cc(Cl)ccc1O`: in the data set with Leishmania donovani [1] (setting [8]), the concentration for half-maximal inhibition (IC50) worked out at 3.88 µM. Further, the results for the CC50 in data set [2] and in data set [3] were 49.6 µM and 21.9 µM, respectively. The selectivity ratio amounted to 5.65 in data set [4] and 12.8 in data set [5].

In the case of `O=C(Nc1ccccc1F)c1cc(Cl)ccc1O`, the IC50 with Leishmania donovani [1] (setting [8]) turned out to be 3.95 µM. For the same compound, the CC50 in data set [2] was 44 µM; in data set [3], 12.1 µM. Moreover, the selectivity ratio in data set [4] is 3.06; in data set [5], 11.1.

As for `O=C(Nc1ccc(Br)c(C(F)(F)F)c1)c1ccccc1O`, the IC50 with Leishmania donovani [1] (setting [8]) is 3.82 µM. Also, the CC50 was 44.2 µM in data set [2] and 4.33 µM in data set [3]. Also, the values for the selectivity ratio in data set [4] and in data set [5] were 1.13 and 11.6, respectively.

For the compound `O=C(Nc1ccc(Cl)c(C(F)(F)F)c1)c1cc(Cl)ccc1O`, the IC50 in the data set with Leishmania donovani [1] (setting [8]) came out at 4 µM. The CC50 in data set [2] stood at 52.4 µM; in data set [3], 4.31 µM. Also, the results for the selectivity ratio in data set [4] and in data set [5] were 1.08 and 13.1, respectively.

As to `O=C(Nc1ccc([N+](=O)[O-])cc1Cl)c1cc(Cl)ccc1O` [NICLOSAMIDE], the IC50 in the data set on Leishmania donovani [1] (setting [8]) is 3.68 µM. For the same compound, the CC50 is 42.1 µM in data set [2] and 3.06 µM in data set [3]. In addition, the selectivity ratio in data set [4] amounted to 0.61; in data set [5] it was 11.4.
